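Assay format: 96-well plates, 48-hour exposure. GI50 = concentration required for 50% inhibition of growth.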 Active and inactive are the calls of the source. No stated cut-off is given here; in the data, active = GI50 up to about 1.1 µM and inactive = higher.
Columns and labels:
Assay in all cases: NCI anticancer screen, dose series, 48 h
A549 = test system: A549
CAKI-1 = test system: CAKI-1
CCRF-CEM = test system: CCRF-CEM
COLO 205 = test system: COLO 205
HOP-92 = test system: HOP-92
IGROV-1 = test system: IGROV-1
MCF7 = test system: MCF7
MDA-MB-231 = test system: MDA-MB-231
MDA-MB-435 = test system: MDA-MB-435
MDA-N = test system: MDA-N
NCI-H226 = test system: NCI-H226
NCI-H460 = test system: NCI-H460
OVCAR-8 = test system: OVCAR-8
PC-3 = test system: PC-3
RXF 393 = test system: RXF 393
SK-MEL-28 = test system: SK-MEL-28
SK-MEL-5 = test system: SK-MEL-5
SNB-19 = test system: SNB-19
BT-549 = test system: BT-549

Measured: GI50

CCC1=C(c2ccc(OC)cc2)CC[C@]2(CCNC2=O)[C@@H]1C
inactive: A549 37.6 µM | CAKI-1 48.3 µM | CCRF-CEM 24.8 µM | COLO 205 14.4 µM | HOP-92 40.7 µM | IGROV-1 40.3 µM | MCF7 21.9 µM | MDA-MB-231 39.1 µM | MDA-MB-435 19.6 µM | MDA-N 22.5 µM | NCI-H226 37.9 µM | NCI-H460 28.2 µM | OVCAR-8 42.4 µM | PC-3 26.4 µM | RXF 393 55.2 µM | SK-MEL-28 30.5 µM | SK-MEL-5 16.8 µM | SNB-19 34.6 µM

COc1ccc(C2C(C=O)C(N3CCN(C)CC3)=Nc3nc4ccccc4n32)cc1 (stereo not drawn)
inactive: A549 17.2 µM | BT-549 14 µM | CAKI-1 19.1 µM | CCRF-CEM 2.31 µM | COLO 205 16.8 µM | HOP-92 4.83 µM | IGROV-1 16.3 µM | MCF7 13.2 µM | MDA-MB-231 12.1 µM | MDA-MB-435 15.5 µM | NCI-H226 16.7 µM | NCI-H460 25.2 µM | OVCAR-8 16.2 µM | PC-3 16.3 µM | RXF 393 13.6 µM | SK-MEL-28 17 µM | SK-MEL-5 15.9 µM | SNB-19 15.3 µM

CCOC(=O)c1nc2ccc(C(F)(F)F)cc2nc1Oc1ccc(F)cc1
inactive: BT-549 > 100 µM | CAKI-1 > 100 µM | CCRF-CEM > 100 µM | COLO 205 > 100 µM | HOP-92 > 100 µM | IGROV-1 > 100 µM | MCF7 > 100 µM | MDA-MB-231 > 100 µM | MDA-MB-435 > 100 µM | NCI-H226 > 100 µM | NCI-H460 > 100 µM | OVCAR-8 > 100 µM | PC-3 > 100 µM | RXF 393 > 100 µM | SK-MEL-28 > 100 µM | SK-MEL-5 > 100 µM | SNB-19 > 100 µM

Cc1ccc2c(c1)CN1c3ccc(C)cc3CN2C1c1ccccc1O
inactive: A549 > 100 µM | CAKI-1 > 100 µM | CCRF-CEM 47.9 µM | COLO 205 78.7 µM | HOP-92 15.2 µM | IGROV-1 79.4 µM | NCI-H226 49.5 µM | NCI-H460 33.9 µM | OVCAR-8 > 100 µM | RXF 393 7.18 µM | SK-MEL-28 37.5 µM | SK-MEL-5 13.7 µM

CC(=O)C(=C(I)I)c1ccccc1
inactive: A549 24.6 µM | CAKI-1 1.84 µM | CCRF-CEM 11.5 µM | COLO 205 15.5 µM | HOP-92 37.2 µM | IGROV-1 26.1 µM | MCF7 27.6 µM | MDA-MB-231 22.3 µM | MDA-MB-435 14.6 µM | MDA-N 15.2 µM | NCI-H226 11.5 µM | NCI-H460 33.4 µM | OVCAR-8 18.3 µM | PC-3 31.5 µM | RXF 393 20 µM | SK-MEL-28 19.5 µM | SK-MEL-5 15.1 µM | SNB-19 18.5 µM

O=C1NN=C(O)C2C3c4ccccc4C(c4ccccc43)C12 (stereo not drawn)
inactive: A549 > 100 µM | BT-549 > 100 µM | CAKI-1 > 100 µM | CCRF-CEM > 100 µM | COLO 205 > 100 µM | IGROV-1 > 100 µM | MCF7 > 100 µM | MDA-MB-231 > 100 µM | MDA-N > 100 µM | NCI-H226 > 100 µM | NCI-H460 > 100 µM | OVCAR-8 > 100 µM | PC-3 > 100 µM | RXF 393 > 100 µM | SK-MEL-28 > 100 µM | SK-MEL-5 > 100 µM | SNB-19 > 100 µM

Oc1ccc(N=C2CCC(=C(c3ccccc3)c3ccc(Nc4ccc(O)cc4)cc3)CC2)cc1
inactive: A549 83.9 µM | CAKI-1 35.4 µM | CCRF-CEM 88.9 µM | COLO 205 33.3 µM | HOP-92 > 100 µM | MCF7 > 100 µM | MDA-MB-231 75.5 µM | MDA-MB-435 34.5 µM | NCI-H226 > 100 µM | NCI-H460 85.7 µM | OVCAR-8 48.5 µM | PC-3 96.2 µM | RXF 393 58.6 µM | SK-MEL-28 > 100 µM | SK-MEL-5 > 100 µM | SNB-19 78.5 µM

COc1ccc(N/N=C/C2=CC(C)(C)C(C#N)(C#N)C(O)=C2C#N)cc1
inactive: A549 25.6 µM | CAKI-1 36.6 µM | CCRF-CEM 35.5 µM | COLO 205 22.5 µM | HOP-92 17.1 µM | IGROV-1 46.9 µM | MCF7 35.8 µM | MDA-MB-231 34.3 µM | MDA-MB-435 65.3 µM | MDA-N 54.5 µM | NCI-H226 77.8 µM | NCI-H460 20.9 µM | OVCAR-8 28.7 µM | PC-3 27.8 µM | RXF 393 36.6 µM | SK-MEL-28 91.2 µM | SK-MEL-5 69.7 µM | SNB-19 56.6 µM

COc1ccccc1NS(=O)(=O)c1cc(C(C)(C)C)ccc1OCCOc1ccc(C(C)(C)C)cc1S(=O)(=O)Nc1ccccc1OC
inactive: A549 > 100 µM | CAKI-1 > 100 µM | CCRF-CEM > 100 µM | COLO 205 > 100 µM | HOP-92 > 100 µM | IGROV-1 > 100 µM | NCI-H226 > 100 µM | NCI-H460 > 100 µM | OVCAR-8 > 100 µM | RXF 393 > 100 µM | SK-MEL-28 > 100 µM | SK-MEL-5 > 100 µM | SNB-19 > 100 µM

CCc1c(O)cc(=O)oc1-c1ccc(OC)c(OC)c1
inactive: A549 > 100 µM | BT-549 > 100 µM | CAKI-1 > 100 µM | CCRF-CEM > 100 µM | COLO 205 > 100 µM | HOP-92 > 100 µM | IGROV-1 > 100 µM | MCF7 > 100 µM | MDA-MB-231 > 100 µM | MDA-MB-435 > 100 µM | NCI-H460 > 100 µM | OVCAR-8 > 100 µM | PC-3 > 100 µM | RXF 393 > 100 µM | SK-MEL-28 > 100 µM | SK-MEL-5 > 100 µM | SNB-19 > 100 µM

Cc1ccc(-c2c(C#N)c(O)n(NS(=O)(=O)c3ccccc3)c(=O)c2C#N)cc1
inactive: A549 > 100 µM | BT-549 > 100 µM | CAKI-1 > 100 µM | CCRF-CEM > 100 µM | COLO 205 > 100 µM | HOP-92 > 100 µM | IGROV-1 > 100 µM | MCF7 > 100 µM | MDA-MB-231 > 100 µM | MDA-MB-435 > 100 µM | NCI-H226 > 100 µM | NCI-H460 > 100 µM | OVCAR-8 > 100 µM | PC-3 > 100 µM | RXF 393 > 100 µM | SK-MEL-28 > 100 µM | SK-MEL-5 68.5 µM | SNB-19 > 100 µM

CC(=O)Oc1ccn2nc(C)c(Cc3c(C)nn4ccc(OC(C)=O)cc34)c2c1
inactive: A549 > 100 µM | CAKI-1 51.8 µM | CCRF-CEM 27.9 µM | HOP-92 > 100 µM | IGROV-1 > 100 µM | MCF7 > 10 µM | MDA-MB-231 > 100 µM | MDA-MB-435 25.1 µM | MDA-N > 10 µM | NCI-H226 > 100 µM | NCI-H460 50.9 µM | OVCAR-8 > 100 µM | PC-3 > 10 µM | SK-MEL-28 > 100 µM | SK-MEL-5 > 100 µM | SNB-19 > 100 µM

Source: ChEMBL document CHEMBL1201862, “PubChem BioAssay data set” (2004)
